Results: US9359337B2, “Acetamide derivatives” (Hoffmann-La Roche Inc., priority 2012, dated 2016)

Molecular target: h-TRPA1 (Homo sapiens (Human), UniProt O75762)
Experiment: Dose response calcium flux (FLIPR) assay, ChanTest hTRPA1-CHO stably transfected cell line
Assay type: cell-based
Conditions: CHO-K1 Tet-on TRPA1 cells; calcium flux after cinnamaldehyde 100 uM agonist; 30 min compound preincubation
Procedure: Dose Response Assay: ChanTest hTRPA1-CHO Stably Transfected Cell Line
To induce expression, tetracycline was added to blasticidin/zeocin-free media at a final concentration of 1 ug/ml. Experiments were run at 24 hours post induction.
• Harvested cells with 0.025% trypsin/EDTA. • Resuspended cells in growth media without selection antibiotics. • Measured cell density and diluted to 2.4×10^5 cells/ml in media containing 1 ug/ml Doxycycline Plate 25 ul/well into 384 well black/clear tissue culture-treated plates. • Incubated overnight at 37° C. Calcium Flux Assay: Day of Assay: Reagents: • Replacement Buffer: Hank's Balanced Salt Solution, 20 mM HEPES along with 0.005% BSA and 2× Probenecid • Dye Loading Buffer: Cal-3 NW Calcium dye was prepared by dissolving the contents of one vial with […] Hank's Balanced Salt Solution containing 20 mM HEPES. Control Compounds for CHOK1/TRPA1 Cells: • AP-18, stock 10 mM, prepare 3.5× compound dilution in a Compound Buffer (HBSS/20 mM HEPES/0.005% BSA)—final concentration 10 uM. Preparation of Cinnamaldehyde (Agonist Addition): • FW=132.16 • Specific gravity=1.046 gm/cc • 1.32 gm/1.046 gm/cc=1.26 ml of stock • Add 1.74 ml DMSO=3.3 M stock • Working solution 4.5× (final 100 uM in Compound Buffer: HBSS/20 mM HEPES/0.005% BSA) Compounds dilutions were prepared from 5 or 10 mM stock (100% DMSO):
Compounds were tested at either 20 μM three folds dilution 11 steps out or 30 μM two folds dilution 11 steps out.
Growth media was removed from the cell plates (20 ul) and 20 ul of the Replacement Buffer was added followed by addition of 25 ul of diluted dye. All three steps were performed using a Plate Washer BioTek 407. The plates were then incubated for 30′ at RT.
After incubation, both the cell and compound plates were brought to the FLIPR and 20 ul of the diluted compounds/antagonist/bk were transferred to the cell plates by the FLIPR. Plates were then incubated for 30′ at room temperature. After 30′ incubation, plates were returned to the FLIPR and 20 ul of 4.5× Cinnamaldehyde was added to the cell plates. During the compound addition as well as agonist addition, fluorescence readings were taken simultaneously from all 384 wells of the cell plate every 1.5 seconds. Five readings were taken to establish a stable baseline, then 20 ul of sample was rapidly (30 ul/sec) and simultaneously added to each well of the cell plate. The fluorescence was continuously monitored before, during and after sample/agonist addition for a total elapsed time of 100 seconds (compound addition) and 120 seconds (agonist addition). Responses (increase in peak fluorescence) in each well following agonist addition was determined. The initial fluorescence reading from each well, prior to ligand stimulation, was used a zero baseline value for the data from that well.

Chain of h-TRPA1 (O75762 whole entry): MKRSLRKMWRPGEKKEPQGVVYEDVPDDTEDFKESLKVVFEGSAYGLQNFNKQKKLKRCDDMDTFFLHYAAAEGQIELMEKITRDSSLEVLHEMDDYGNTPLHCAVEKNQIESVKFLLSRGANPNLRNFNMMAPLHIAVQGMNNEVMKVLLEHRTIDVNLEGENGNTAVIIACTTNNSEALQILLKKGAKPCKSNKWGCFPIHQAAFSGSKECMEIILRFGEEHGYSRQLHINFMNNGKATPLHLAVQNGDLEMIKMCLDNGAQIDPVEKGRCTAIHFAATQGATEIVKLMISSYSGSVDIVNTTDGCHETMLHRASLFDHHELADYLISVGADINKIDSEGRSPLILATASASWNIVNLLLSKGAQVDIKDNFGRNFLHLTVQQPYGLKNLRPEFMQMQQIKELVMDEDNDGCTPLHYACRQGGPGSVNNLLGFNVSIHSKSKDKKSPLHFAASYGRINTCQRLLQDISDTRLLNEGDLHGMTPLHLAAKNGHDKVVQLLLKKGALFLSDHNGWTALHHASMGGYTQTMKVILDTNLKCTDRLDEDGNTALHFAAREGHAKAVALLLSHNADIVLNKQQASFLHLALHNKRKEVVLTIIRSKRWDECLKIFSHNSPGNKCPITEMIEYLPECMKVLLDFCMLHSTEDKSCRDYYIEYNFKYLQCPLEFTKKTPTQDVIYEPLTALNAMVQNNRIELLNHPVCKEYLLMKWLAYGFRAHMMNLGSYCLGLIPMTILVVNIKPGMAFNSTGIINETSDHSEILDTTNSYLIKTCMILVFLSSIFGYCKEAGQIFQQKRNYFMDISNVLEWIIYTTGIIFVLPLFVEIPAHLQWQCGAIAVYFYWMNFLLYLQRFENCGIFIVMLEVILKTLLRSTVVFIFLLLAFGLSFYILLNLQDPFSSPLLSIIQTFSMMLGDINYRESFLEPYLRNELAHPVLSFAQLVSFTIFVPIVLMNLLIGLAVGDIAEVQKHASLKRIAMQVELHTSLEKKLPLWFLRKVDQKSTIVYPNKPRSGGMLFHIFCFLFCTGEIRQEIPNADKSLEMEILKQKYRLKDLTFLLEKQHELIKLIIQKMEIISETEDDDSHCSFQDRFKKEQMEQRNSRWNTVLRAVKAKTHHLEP

`CC(C)N(CC(=O)NCC1CCCN(c2ccc(C(F)(F)F)cc2)C1)S(=O)(=O)c1ccc(F)cc1` (racemic) [Example 2, 2-[(4-Fluoro-benzenesulfonyl)-isopropyl-amino]-N-[1-(4-trifluoromethyl-phenyl)-piperidin-3-ylmethyl]-acetamide] and `CC(C)N(CC(=O)NC[C@@H]1CCCN(c2ccc(C(F)(F)F)cc2)C1)S(=O)(=O)c1ccc(F)cc1` [Example 5, 2-[(4-Fluoro-benzenesulfonyl)-isopropyl-amino]-N—[(S)-1-(4-trifluoromethyl-phenyl)-piperidin-3-ylmethyl]-acetamide] are within 1.5-fold of each other in IC50: 233 nM for the first, 307 nM for the second.

First: CC(C)N(CC(=O)NCC1CN(c2ccc(C(F)(F)F)cc2)CCO1)S(=O)(=O)c1ccc(F)cc1 (racemic) [Example 8, 2-[(4-Fluoro-benzenesulfonyl)-isopropyl-amino]-N-[4-(4-trifluoromethyl-phenyl)-morpholin-2-ylmethyl]-acetamide]
Second: CC(C)N(CC(=O)NC[C@@H]1CN(c2ccc(C(F)(F)F)cc2)CCO1)S(=O)(=O)c1ccc(F)cc1 [Example 10, 2-[(4-Fluoro-benzenesulfonyl)-isopropyl-amino]-N—[(R)-4-(4-trifluoromethyl-phenyl)-morpholin-2-ylmethyl]-acetamide]
The IC50 of the first is 6.8-fold lower: 193 nM for the first, 1310 nM for the second. The first is the more potent here.

`CCN(CC(=O)NCC1CCCN(c2ccc(C(F)(F)F)cc2)C1)S(=O)(=O)c1ccc(F)cc1` (centres unmarked) [Example 1, 2-[Ethyl-(4-fluoro-benzenesulfonyl)-amino]-N-[1-(4-trifluoromethyl-phenyl)-piperidin-3-ylmethyl]-acetamide] and `CCN(CC(=O)NCC1CCN(c2ccc(C(F)(F)F)cc2)C1)S(=O)(=O)c1ccc(F)cc1` (centres unmarked) [Example 3, 2-[Ethyl-(4-fluoro-benzenesulfonyl)-amino]-N-[1-(4-trifluoromethyl-phenyl)-pyrrolidin-3-ylmethyl]-acetamide] are within 1.5-fold of each other in IC50: 494 nM for the first, 634 nM for the second.

`CC(C)N(CC(=O)NCC1CCN(c2ccc(C(F)(F)F)cc2)C1)S(=O)(=O)c1ccc(F)cc1` (centres unmarked) [Example 4, 2-[(4-Fluoro-benzenesulfonyl)-isopropyl-amino]-N-[1-(4-trifluoromethyl-phenyl)-pyrrolidin-3-ylmethyl]-acetamide] and `CC(C)N(CC(=O)NC[C@H]1CCCN(c2ccc(C(F)(F)F)cc2)C1)S(=O)(=O)c1ccc(F)cc1` [Example 6, 2-[(4-Fluoro-benzenesulfonyl)-isopropyl-amino]-N—[(R)-1-(4-trifluoromethyl-phenyl)-piperidin-3-ylmethyl]-acetamide] are within 1.5-fold of each other in IC50: 425 nM for the first, 504 nM for the second.

`CCN(CC(=O)NCC1CN(c2ccc(C(F)(F)F)cc2)CCO1)S(=O)(=O)c1ccc(F)cc1` (centres unmarked) [Example 9, 2-[Ethyl-(4-fluoro-benzenesulfonyl)-amino]-N-[4-(4-trifluoromethyl-phenyl)-morpholin-2-ylmethyl]-acetamide] and `CC(C)N(CC(=O)NC[C@H]1CN(c2ccc(C(F)(F)F)cc2)CCO1)S(=O)(=O)c1ccc(F)cc1` [Example 11, 2-[(4-Fluoro-benzenesulfonyl)-isopropyl-amino]-N—[(S)-4-(4-trifluoromethyl-phenyl)-morpholin-2-ylmethyl]-acetamide] are within 1.5-fold of each other in IC50: 226 nM for the first, 151 nM for the second.

Work on `CC(C)N(CC(=O)NCC1CN(c2ccc(C(F)(F)F)cn2)CCO1)S(=O)(=O)c1ccc(F)cc1` (centres unmarked) [Example 12, 2-[(4-Fluoro-benzenesulfonyl)-isopropyl-amino]-N-[4-(5-trifluoromethyl-pyridin-2-yl)-morpholin-2-ylmethyl]-acetamide] yielded an IC50 of 385 nM.
